From the NIST ThermoML archive (doi:10.1016/j.jct.2005.09.004)

Key:
[1] = refractive index (Na D-line) (dimensionless); φn = volume fraction of the nth substance listed; conditions: 101 kPa, Liquid, Standard Abbe refractometry
[2] = xn = mol fraction of the nth substance listed; conditions: for surface tension liquid-gas: Drop volume; for mass density: 101 kPa, Liquid

C1CCCC1 [cyclopentane] + C1COCCO1
Conditions | mass density [kg/m3] | refractive index | surface tension liquid-gas [mN/m]
[1], 283.15 K, φ2 = 0.0438 | – | 1.41192 | –
[1], 283.15 K, φ2 = 0.087 | – | 1.41201 | –
[1], 283.15 K, φ2 = 0.1787 | – | 1.41266 | –
[1], 283.15 K, φ2 = 0.2781 | – | 1.41381 | –
[1], 283.15 K, φ2 = 0.3694 | – | 1.41511 | –
[1], 283.15 K, φ2 = 0.4754 | – | 1.41686 | –
[1], 283.15 K, φ2 = 0.5928 | – | 1.41854 | –
[1], 283.15 K, φ2 = 0.7068 | – | 1.4208 | –
[1], 283.15 K, φ2 = 0.7975 | – | 1.42271 | –
[1], 283.15 K, φ2 = 0.9083 | – | 1.42517 | –
[1], 283.15 K, φ2 = 0.9568 | – | 1.42621 | –
[1], 298.15 K, φ2 = 0.0401 | – | 1.40332 | –
[1], 298.15 K, φ2 = 0.0979 | – | 1.40358 | –
[1], 298.15 K, φ2 = 0.1873 | – | 1.4043 | –
[1], 298.15 K, φ2 = 0.2827 | – | 1.40556 | –
[1], 298.15 K, φ2 = 0.3727 | – | 1.40698 | –
[1], 298.15 K, φ2 = 0.4709 | – | 1.40874 | –
[1], 298.15 K, φ2 = 0.5703 | – | 1.41064 | –
[1], 298.15 K, φ2 = 0.6847 | – | 1.41303 | –
[1], 298.15 K, φ2 = 0.785 | – | 1.41517 | –
[1], 298.15 K, φ2 = 0.8986 | – | 1.41772 | –
[1], 298.15 K, φ2 = 0.9436 | – | 1.41867 | –
[1], 313.15 K, φ2 = 0.0434 | – | 1.39455 | –
[1], 313.15 K, φ2 = 0.0858 | – | 1.39477 | –
[1], 313.15 K, φ2 = 0.181 | – | 1.3956 | –
[1], 313.15 K, φ2 = 0.2747 | – | 1.39691 | –
[1], 313.15 K, φ2 = 0.3702 | – | 1.3985 | –
[1], 313.15 K, φ2 = 0.472 | – | 1.40052 | –
[1], 313.15 K, φ2 = 0.5688 | – | 1.40259 | –
[1], 313.15 K, φ2 = 0.6767 | – | 1.40502 | –
[1], 313.15 K, φ2 = 0.7759 | – | 1.40729 | –
[1], 313.15 K, φ2 = 0.8977 | – | 1.41018 | –
[1], 313.15 K, φ2 = 0.933 | – | 1.41105 | –
[2], 283.15 K, x2 = 0.0516 | 766.94 | – | –
[2], 283.15 K, x2 = 0.0615 | – | – | 24.4
[2], 283.15 K, x2 = 0.095 | 777.38 | – | –
[2], 283.15 K, x2 = 0.121 | – | – | 24.58
[2], 283.15 K, x2 = 0.1824 | – | – | 24.76
[2], 283.15 K, x2 = 0.1944 | 802.55 | – | –
[2], 283.15 K, x2 = 0.2656 | – | – | 25.04
[2], 283.15 K, x2 = 0.2987 | 830.28 | – | –
[2], 283.15 K, x2 = 0.3973 | 857.59 | – | –
[2], 283.15 K, x2 = 0.4058 | – | – | 25.63
[2], 283.15 K, x2 = 0.499 | 886.71 | – | –
[2], 283.15 K, x2 = 0.5313 | – | – | 26.4
[2], 283.15 K, x2 = 0.6003 | 916.64 | – | –
[2], 283.15 K, x2 = 0.6376 | – | – | 27.35
[2], 283.15 K, x2 = 0.7063 | 949.05 | – | –
[2], 283.15 K, x2 = 0.7264 | – | – | 28.44
[2], 283.15 K, x2 = 0.806 | – | – | 29.74
[2], 283.15 K, x2 = 0.8072 | 980.93 | – | –
[2], 283.15 K, x2 = 0.902 | – | – | 31.92
[2], 283.15 K, x2 = 0.9076 | 1013.82 | – | –
[2], 283.15 K, x2 = 0.9528 | 1029.04 | – | –
[2], 283.15 K, x2 = 0.9642 | – | – | 33.79
[2], 298.15 K, x2 = 0.0488 | 751.07 | – | –
[2], 298.15 K, x2 = 0.0615 | – | – | 22.37
[2], 298.15 K, x2 = 0.0945 | 762.02 | – | –
[2], 298.15 K, x2 = 0.121 | – | – | 22.56
[2], 298.15 K, x2 = 0.1818 | 783.72 | – | –
[2], 298.15 K, x2 = 0.1824 | – | – | 22.74
[2], 298.15 K, x2 = 0.2656 | – | – | 23.01
[2], 298.15 K, x2 = 0.2983 | 814.38 | – | –
[2], 298.15 K, x2 = 0.3959 | 841.12 | – | –
[2], 298.15 K, x2 = 0.4058 | – | – | 23.66
[2], 298.15 K, x2 = 0.4962 | 869.6 | – | –
[2], 298.15 K, x2 = 0.5313 | – | – | 24.56
[2], 298.15 K, x2 = 0.6067 | 902 | – | –
[2], 298.15 K, x2 = 0.6376 | – | – | 25.57
[2], 298.15 K, x2 = 0.7034 | 931.45 | – | –
[2], 298.15 K, x2 = 0.7264 | – | – | 26.68
[2], 298.15 K, x2 = 0.806 | – | – | 27.93
[2], 298.15 K, x2 = 0.811 | 965.2 | – | –
[2], 298.15 K, x2 = 0.902 | – | – | 30.03
[2], 298.15 K, x2 = 0.9025 | 995.13 | – | –
[2], 298.15 K, x2 = 0.9506 | 1011.12 | – | –
[2], 298.15 K, x2 = 0.9642 | – | – | 31.9
[2], 313.15 K, x2 = 0.0449 | 734.98 | – | –
[2], 313.15 K, x2 = 0.0615 | – | – | 20.14
[2], 313.15 K, x2 = 0.094 | 746.73 | – | –
[2], 313.15 K, x2 = 0.121 | – | – | 20.45
[2], 313.15 K, x2 = 0.1824 | – | – | 20.77
[2], 313.15 K, x2 = 0.195 | 771.73 | – | –
[2], 313.15 K, x2 = 0.2656 | – | – | 21.15
[2], 313.15 K, x2 = 0.2962 | 798.13 | – | –
[2], 313.15 K, x2 = 0.3969 | 825.52 | – | –
[2], 313.15 K, x2 = 0.4058 | – | – | 21.83
[2], 313.15 K, x2 = 0.4983 | 854.12 | – | –
[2], 313.15 K, x2 = 0.5313 | – | – | 22.62
[2], 313.15 K, x2 = 0.5994 | 883.66 | – | –
[2], 313.15 K, x2 = 0.6376 | – | – | 23.59
[2], 313.15 K, x2 = 0.6987 | 913.64 | – | –
[2], 313.15 K, x2 = 0.7264 | – | – | 24.72
[2], 313.15 K, x2 = 0.8026 | 946.08 | – | –
[2], 313.15 K, x2 = 0.806 | – | – | 26.05
[2], 313.15 K, x2 = 0.902 | – | – | 28.24
[2], 313.15 K, x2 = 0.9066 | 979.72 | – | –
[2], 313.15 K, x2 = 0.9482 | 993.49 | – | –
[2], 313.15 K, x2 = 0.9642 | – | – | 30.03
